Measured values taken from PMC7043210, “Differential activation of G protein‐mediated signaling by synthetic cannabinoid receptor agonists” (Pharmacology Research & Perspectives, 2020).
Entries after “also recorded” stand apart in the source; their conditions may differ. Like-named read-outs stand apart in the source and are kept apart here.

Key:
human CB1 receptor [1] = target: T1, human CB1 receptor (Homo sapiens, UniProt P21554); format: cell-based
T1 construct: HA (hemagglutinin); expressed in transfected cells; host or cells: HEK 293 FlpIn cells with GIRK4 expression, stably transfected (pcDNA5/FRT + pOG44)

HEK 293 wild‐type cells = assay: FSK-stimulated cAMP accumulation in HEK 293 wild-type cells (not containing CB1 receptors); format: cell-based, human; details: 10 µmol L^−1, HEK 293 wild-type cells
CB1 [2] = system: CB1; parameters: method as in PMID 29408093; details: HEK cells transiently expressing CB1; cited from earlier work
CB1 [3] = system: CB1; parameters: method as in PMID 30925348, PMID 26795398, PMID 29042214, PMID 28874764, PMID 25769232; details: mice; cited from earlier work
human CB1 receptor [4] = target: T1, human CB1 receptor; format: cell-based; remark: listed apart in the source
[5] = read-out: G i (‐PTX) EC50 (converted)
[6] = read-out: G s (+PTX) EC50 (converted)
[7] = read-out: Gs (+PTX) EC50 (converted)

T1 sequence (P21554 whole entry): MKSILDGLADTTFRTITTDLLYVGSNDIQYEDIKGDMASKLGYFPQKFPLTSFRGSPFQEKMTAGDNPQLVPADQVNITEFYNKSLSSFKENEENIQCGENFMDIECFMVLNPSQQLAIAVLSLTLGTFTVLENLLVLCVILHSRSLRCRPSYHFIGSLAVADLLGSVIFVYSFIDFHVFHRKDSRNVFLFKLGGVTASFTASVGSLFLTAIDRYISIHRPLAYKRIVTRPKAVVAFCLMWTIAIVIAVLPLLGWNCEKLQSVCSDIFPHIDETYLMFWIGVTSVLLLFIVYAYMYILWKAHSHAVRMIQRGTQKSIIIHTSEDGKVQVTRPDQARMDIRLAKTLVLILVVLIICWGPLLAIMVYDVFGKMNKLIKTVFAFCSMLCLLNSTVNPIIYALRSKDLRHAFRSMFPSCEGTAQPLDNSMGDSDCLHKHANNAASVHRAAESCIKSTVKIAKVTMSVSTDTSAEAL

SMILES	effect of SR141716A pretreatment on SCRA-mediated stimulation of FSK-induced cAMP response (human CB1 receptor [1])	induced seizures, mechanism (CB1 [3])	G i (‐PTX) E max (% FSK) (human CB1 receptor [4])	G i (‐PTX) pEC50 (human CB1 receptor [4])	G i (−PTX) selectivity (human CB1 receptor [4])	EC50 (human CB1 receptor [4]; [5]) [nM]	G s (+PTX) E max (% FSK) (human CB1 receptor [1])	G s (+PTX) pEC50 (human CB1 receptor [1])	EC50 (human CB1 receptor [1]; [6]) [nM]	increase in cAMP levels above that produced by FSK alone (human CB1 receptor [1])	further results
CC(C)[C@H](NC(=O)c1nn(CC2CCCCC2)c2ccccc12)C(N)=O	only partially inhibited; also recorded: not significantly different	–	–	–	–	–	–	–	–	–	increase in cAMP levels above that of FSK alone (human CB1 receptor [1]): 86 ± 21%; increase in FSK‐stimulated cAMP accumulation (HEK 293 wild‐type cells): 29 ± 10%; effect on cAMP levels in absence and presence of forskolin (CB1 [2]): elevation in cAMP levels
CCCCC/C=C\C/C=C\C/C=C\C/C=C\CCCC(=O)OC(CO)CO [2‐AG, 2‐arachidonoyl glycerol, reference compound]	–	–	–	–	–	–	–	–	–	–	effect on cAMP relative to CP55940 (human CB1 receptor [1]): approximately twice that of CP55940
CC(C)[C@H](NC(=O)c1nn(CCCCCF)c2ccccc12)C(N)=O [5F‐AB‐PINACA]	–	CB1‐mediated	–	–	–	–	–	–	–	–	–
COC(=O)[C@@H](NC(=O)c1cn(CCCCCF)c2ccccc12)C(C)(C)C [5F‐MDMB‐PICA]	inhibited	–	60 ± 4	9.2 ± 0.2 (0.62)	137	0.62	126 ± 5	7.1 ± 0.4 (85)	85	–	effect of SR141716A pretreatment on SCRA-induced inhibition of cAMP signaling (human CB1 receptor [4]): blocked
CC(C)[C@H](NC(=O)c1nn(Cc2ccc(F)cc2)c2ccccc12)C(N)=O [AB‐FUBINACA]	inhibited	–	61 ± 2	9.0 ± 0.2 (0.96)	–	0.96	144 ± 12	–	–	more than 30%	Gi (-PTX) selectivity (human CB1 receptor [4]): 348; effect of SR141716A pretreatment on SCRA-induced inhibition of cAMP signaling (human CB1 receptor [4]): blocked; EC50 (human CB1 receptor [4]; read-out: Gi (-PTX) EC50 (converted)): 1.1 nM; effect on cAMP relative to CP55940 (human CB1 receptor [1]): up to 2.5 times; EC50 (human CB1 receptor [1]; [7]): 383 nM
CCCCCn1nc(C(=O)N[C@H](C(N)=O)C(C)C)c2ccccc21 [AB‐PINACA]	–	–	–	–	–	–	–	–	–	more than 30%	–
O=C(c1cccc2ccccc12)c1cn(CCCCCF)c2ccccc12 [AM‐2201]	–	CB1‐mediated	–	–	–	–	–	–	–	–	–
CCCCCCC(C)(C)c1ccc([C@@H]2C[C@H](O)CC[C@H]2CCCO)c(O)c1 [CP55940, reference compound]	–	–	–	–	–	–	–	–	–	19%	–
CC(C)(NC(=O)c1nn(CCCCC#N)c2ccccc12)c1ccccc1 [CUMYL‐4CN‐BINACA, reference compound]	–	CB1‐mediated	–	–	–	–	–	–	–	–	–
CCCCCn1cc(C(=O)c2cccc3ccccc23)c2ccccc21 [JWH‐018]	inhibited	CB1‐mediated	–	7.8 ± 0.2 (16)	18	16	114 ± 4	6.5 ± 0.7 (288)	288	–	Gi (-PTX) selectivity (human CB1 receptor [4]): 14; effect of SR141716A pretreatment on SCRA-induced inhibition of cAMP signaling (human CB1 receptor [4]): blocked; Gs (+PTX) pEC50 (human CB1 receptor [1]): 6.7 ± 0.7 (221); activation of Gαs pathway (increase over FSK alone) (human CB1 receptor [1]): 14%; EC50 (human CB1 receptor [1]; [7]): 221 nM
CCCCCn1cc(C(=O)Oc2cccc3cccnc23)c2ccccc21 [PB‐22]	–	–	64 ± 3	8.6 ± 0.2 (2.5)	28	2.5	130 ± 3	7.2 ± 0.5 (69)	69	more than 30%	–
CC1(C)C(C(=O)c2cn(CCCCCF)c3ccccc23)C1(C)C [XLR‐11]	–	–	63 ± 2	7.2 ± 0.2 (63)	75	63	124 ± 5	5.3 ± 0.8 (4720)	4720	–	Gi (-PTX) selectivity (human CB1 receptor [4]): 103; Gs (+PTX) pEC50 (human CB1 receptor [1]): 5.2 ± 0.8 (6490); EC50 (human CB1 receptor [1]; [7]): 6490 nM
